Assay results reported in paper PMC10072326, “Promising anticancer agents based on 8-hydroxyquinoline hydrazone copper(II) complexes” (Frontiers in Chemistry, 2023).

Assays:
[1] = system: Escherichia coli K-12 AG100; assay: MIC determination; format: cell-based; conditions: E. coli; 18 h
Method: (§1) Wild-type Escherichia coli K-12 AG100 strain [argE3 thi-1 rpsL xyl mtl Δ(gal-uvrB) supE44] expressing the AcrAB TolC efflux pump at its basal level and Klebsiella pneumoniae ATCC 49619 Gram-negative strains were studied in the experiments. Sensitive (ATCC 25928) and the methicillin-resistant (MRSA 272123) subspecies of Staphylococcus aureus were used as Gram-positive strains in the assays.
(§2) Minimum inhibitory concentration (MIC) values of selected compounds were determined in 96-well plates based on the Clinical and Laboratory Standard Institute guidelines (CLSI guidelines). The stock solutions of the compounds were dissolved in DMSO using 1.3 μL of Mueller Hinton Broth, and then two-fold serial dilutions were performed. The starting concentration of the compounds was 100 μM. Then 10^‒4 dilution of an overnight bacterial culture in 100 μL of medium was added to each well, except for the medium control wells.

[2] = system: Klebsiella pneumoniae ATCC 49619; assay: MIC determination; format: cell-based; conditions: K. pneumoniae; 18 h
Method: as §1, §2

[3] = system: A-549 cells; assay: Cytotoxicity with ROS scavenger NAC (SRB); format: cell-based; conditions: 10 mM NAC pre-treatment 2 h, co-treatment 72 h
Excerpt: (§3) Additionally, to assess whether the ROS induction contributed to the cytotoxicity triggered by these complexes, we used a ROS scavenger, N-acetyl-cysteine (NAC), in combination with 1, 3, 5 or 8. […] Indeed, it is also possible that the cytotoxicity induced by 5 is not by ROS, despite the induction observed in Figure 7A.
(§4) Figure S27- Protective mechanism of NAC against Cu(II) complexes. Addition of NAC can protect cells from the cytotoxic effects of the Cu(II) complexes A-375 (A) and A-549 (B) cells were pre-treated with 10 mM of ROS scavenger N-acetylcysteine (NAC) for 2 h, then co-treated with freshly prepared Cu(II) complexes (1, 3, 5 and 8) for 72 h. Cell viability was measured via SRB assay (2 biological replicates, each done in duplicate). The error bars represent standard error of the mean. Student t-test was used for statistical analysis, *p<0.05, **p<0.01

[4] = system: A-375 cells; assay: Cytotoxicity with ROS scavenger NAC (SRB); format: cell-based; conditions: 10 mM NAC pre-treatment 2 h, co-treatment 72 h
Excerpt: as §3, §4

[5] = system: A-549 cells; assay: Sulforhodamine B (SRB) cell viability assay; format: cell-based; conditions: 72 h
Method: (§5) Copper compounds were tested, along with the free ligands and cisplatin as the positive control, for their cytotoxicity on both melanoma (A-375) and lung adenocarcinoma (A-549) cell lines in the concentration range 0.78–50 μM. Following 72 h of incubation, cell viability was measured via sulforhodamine B (SRB) assay (Supplementary Figure S25).
(§6) A-375 cells (ATCC, CRL-3222) were grown in Dulbecco’s Modified Eagle Medium with high glucose (Gibco #11965118) and A-549 (ATCC, CCL-185) cells were grown in Dulbecco’s Modified Eagle Medium F-12 (Gibco #11320033), supplemented with 10% FBS (Gibco, #10500064) and Penicillin-Streptomycin (10,000 U/mL, Gibco, #15140122). Cells were incubated at 37 °C, 5% CO2 incubator and subcultured every 3 days.
(§7) All the tested complexes were dissolved in DMSO (10 mM stock solution), and aliquots were stored at -20 °C, thawed on the experiment day and used only once. For SRB cell viability assay, A-375 and A-549 cells were seeded on 96-well plates (4×10^3 cells/well) and treated with serial dilutions of indicated compounds (with a concentration range of 0-50 μM, 72 h). Trichloroacetic acid (TCA) was added to wells for fixation at a final concentration of 10%, for 1 h at 4 °C. Each well was washed five times with ddH2O, dried, and incubated with 0.4% (w/v) SRB dye (50 µL/well) for 30 min at room temperature. The wells were washed with 1% acetic acid (v/v) five times, and 150 µL of 10 mM Tris solution was added to dissolve the stain. Colorimetric measurements were taken at λ = 564 nm. Viability percentage was calculated as follows: % Cell Viability = [100 × (sample Abs.-blank) / (non-treated control Abs.-blank)].

[6] = system: A-375 cells; assay: Sulforhodamine B (SRB) cell viability assay; format: cell-based; conditions: 72 h
Method: as §5, §6, §7

[7] = Thermodynamic solubility at pH 7.4; format: physicochemical; conditions: Cu(II) complexes; pH 7.40; 20 mM HEPES; 25.0°C
Method: Thermodynamic solubility (S) was measured for the new ligands, L^7 and L^8, since data for the rest of the series was previously reported (9), and for selected Cu(II) complexes: 1, 5 and 6. Solubility was measured for the saturated solutions in water at pH 7.40 in 20 mM HEPES at 25.0 ± 0.1 °C. The concentration was determined by UV-Vis spectrophotometry using the stock solutions of the compounds with known concentrations dissolved in 100% DMSO, 50% and 25% (v/v) DMSO/buffered aqueous solutions for the calibration.

[8] = system: A-375 cells; assay: Apoptosis by Annexin V/7-AAD and Caspase 3/7 flow cytometry; format: cell-based; conditions: 48 h, Annexin-V and caspase 3/7
Method: To determine the mode of cell death, A-375 cells were incubated with the Cu complexes and cisplatin for 48 h and, induction of apoptosis was evaluated using both Annexin-V staining and activation of caspase 3/7 in response to drug treatment. While Annexin-V staining relies on the loss of plasma membrane asymmetry, caspases 3 and 7 are critical proteases, which are responsible for the cleavage of many cellular proteins. […] Similar results were obtained in A-549 cells (Supplementary Figure S28).
(§8) 5 × 10^4 number of A-375 and A-549 cells were seeded on 12-well plates, and the next day cells were treated with either copper complexes (calculated IC70 values) or cisplatin (15 μM). Following 48 h of treatment, cells were trypsinized, centrifuged and resuspended in PBS solution supplemented with 1% fetal bovine serum (FBS) (10^6 cells/mL).
Annexin V & Dead Cell Kit (Luminex, MCH100105) protocols were followed for Annexin V activation. Briefly, 1 × 10^5 cells were stained with Annexin V and 7-AAD solution in a 1:1 ratio and incubated at room temperature for 20 min. The apoptotic cell population was evaluated with Muse Cell Analyzer (Merck Millipore).
Caspase-3/7 Kit (Luminex, MCH100108) protocols were followed for Caspase 3/7 staining. 2 × 10^5 cells were stained with 5 μL of Caspase 3/7 antibody (1:8 dilution in PBS) and incubated at room temperature for 30 min. Then, the cells were stained with 100 μL of 7-AAD antibody mixture (1:75 dilution with 1 × Assay Buffer) for 5 min. Caspase 3/7 and 7-AAD positivity were assessed with Muse Cell Analyzer (Merck Millipore).

[9] = system: S. aureus MRSA 272123; assay: MIC determination; format: cell-based, Staphylococcus aureus; conditions: 18 h
Method: as §1, §2

[10] = system: S. aureus ATCC 25928; assay: MIC determination; format: cell-based, Staphylococcus aureus; conditions: S. aureus ATCC 25928 (sensitive); 18 h
Method: as §1, §2

[11] = system: A-375 cells; assay: γH2AX staining for DNA double-strand breaks; format: cell-based
Method: Indeed, we examined whether DNA nicks induced by the complexes on pure plasmid DNA would reflect in cell culture as increased DNA break formation. To test this, A-375 cells were stained using γH2AX, which is a common marker for DSBs (Figure 7B). […] For complex 1 the opposite effect was observed and despite its lower ability to induce ROS formation, the DSB were the highest among the group.
as §8
The Muse ɣH2A.X Activation Dual Detection Kit (Luminex, MCH200101) protocols were followed with minor changes. 1 × 10^5 cells were mixed with ice-cold 1X Fixation Buffer at the same volume for 5 min. Cells were centrifuged (600 g, 5 min), and the pellet was suspended with 100 μL of ice-cold 1X Permeabilization Buffer (10 min, on ice), and centrifuged again. The cell pellet was resuspended with 50 μL of antibody mixture of (20X) Anti-phospho-Histone H2A.X (Ser139), Alexa Fluor 555 and (20X) Anti-H2A.X, PECy5 antibodies. Following 30 min of antibody staining, cells were centrifuged and resuspended with 1X Assay Buffer. DNA breaks were analysed with Muse Cell Analyzer (Merck Millipore).

[12] = system: A-549 cells; assay: ROS activation via dihydroethidium staining, flow cytometry; format: cell-based
Excerpt: Since reactive oxygen species appeared to be involved in the nicking activity of the complexes (Supplementary Figure S24), we investigated whether there was an increase in ROS formation in cells upon drug treatment. Dihydroethidium (DHE) is a reduced form of ethidium, after oxidation with superoxide (ROS), it is converted into 2-hydroxy ethidium, which is a chemical that emits red fluorescence and intercalates DNA. […] Similar results were obtained using A-549 cells, but with much milder induction of ROS except for 8, which remained high (Supplementary Figure S26).
as §8
Oxidative stress levels were assessed by Muse Oxidative Stress Kit (Luminex, MCH100111) using the same protocol as previously described (21).

[Cu+2].[O-]C(=NN=Cc1ccc2cccc([O-])c2n1)c1ccncc1 [Complex 8, [Cu(L^8)]3]
MIC [1]: > 100 µM
MIC [2]: > 100 µM
effect of NAC on cytotoxicity [3]: significantly reduced
effect of NAC on cytotoxicity [4]: significantly reduced
IC50 [5]: 5.1 ± 0.2 µM
IC50 [6]: 2.8 ± 0.4 µM
thermodynamic solubility S 7.4 [7]: 3.3 ± 0.3 µM
induction of apoptosis, in words [8]: most effective drug among the complexes tested
MIC [9]: > 100 µM
MIC [10]: > 100 µM
DSB induction (γH2AX), in words [11]: highest levels of DSB induction
ROS induction, in words [12]: remained high
